From ChEMBL document CHEMBL1201862, “PubChem BioAssay data set” (2004) come the findings set out here.

The structures appear in SMILES notation.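 Results reflect a 48-hour exposure of cells in 96-well plates to compound at five concentrations. GI50 = concentration required for 50% inhibition of growth.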 The source made the active and inactive calls. Cut-off read from the data, not from the text of the source: active = GI50 up to about 1.1 µM and inactive = higher.

Holding throughout (assay): growth of human tumour cells (NCI), 48 h
Experiment [1] has as its system CAKI-1.
Experiment [2] has as its system CCRF-CEM.
Experiment [3] relates to HCT-116.
For experiment [4], the system named is K562.
The test system of experiment [5] is MOLT-4.
In experiment [6] the test system is Malme-3M.
Experiment [7] has as its system SK-MEL-28.
Experiment [8] deals with SK-MEL-2.
For experiment [9], the system named is SK-OV-3.
Experiment [10] deals with SNB-75.
Experiment [11] relates to SR.
For experiment [12], the system named is TK-10.
The subject of experiment [13] is UACC-257.
For experiment [14], the system named is UACC-62.
Experiment [15] relates to A498.
Experiment [16] concerns HCT-15.
Experiment [17] relates to NCI-H226.
Experiment [18] deals with NCI-H460.
Experiment [19] concerns U-251.

As for `O=C(c1ccccc1)C1S(=O)(=O)OCCOS1(=O)=O`, the GI50 is > 100 µM (inactive) in experiment [1]; > 100 µM (inactive) in experiment [2]; > 100 µM (inactive) in [3]; > 100 µM (inactive) in experiment [4]; > 10 µM (inactive) in [5]; > 100 µM (inactive) in [6]. Further, the GI50 in [7], in experiment [8], in [9], in experiment [10], in experiment [11] and in experiment [12] was > 100 µM (inactive) each time. For the same molecule, the GI50 in experiment [13] and in [14] was > 100 µM (inactive) each time.

As for `CC(=O)OCCOCBr`, the GI50 in experiment [15] is > 100 µM (inactive); in [1] it was > 100 µM (inactive); in experiment [2], > 100 µM (inactive); in [3], > 100 µM (inactive); in [16], over 100 µM; in [4] it was > 100 µM (inactive). Further, the GI50 in experiment [6], in [17], in [18], in experiment [7], in experiment [8] and in experiment [9] was > 100 µM (inactive) throughout. Also, the GI50 in [10], in [12], in experiment [19], in [13] and in [14] was > 100 µM (inactive) each time.

For `CCOc1ccc(NC(=O)C2=C(C)NC(C)=C(C(=O)Nc3ccc(OCC)cc3)C2c2ccc([N+](=O)[O-])cc2)cc1`, the GI50 in [15] was 6.32 µM (inactive); in experiment [1], 30 µM (inactive); in [2] it was 13.3 µM (inactive); in [4], 23.3 µM (inactive); in experiment [5] it was 7.1 µM (inactive); in [6] it was 24.4 µM (inactive). The GI50 is 26.8 µM (inactive) in experiment [17]; 22.9 µM (inactive) in [18]; 34.2 µM (inactive) in experiment [7]; 16.2 µM (inactive) in experiment [8]; > 100 µM (inactive) in [9]; 29.4 µM (inactive) in experiment [10]. The GI50 in [12] was 17.9 µM (inactive); in experiment [19], 27.8 µM (inactive); in [13], 39.2 µM (inactive).

Take `O=C(Nc1ccccc1-c1nn(C(=S)Nc2ccccc2)c(=S)n(C(=S)Nc2ccccc2)c1=O)C(F)(F)F`: the GI50 is 22.1 µM (inactive) in experiment [15]; 31.4 µM (inactive) in [1]; 13.3 µM (inactive) in experiment [2]; 16.6 µM (inactive) in experiment [3]; 20.1 µM in experiment [16]; 18.8 µM (inactive) in experiment [4]. The GI50 was 7.85 µM (inactive) in experiment [5]; 30.5 µM (inactive) in experiment [6]; 17.2 µM (inactive) in [17]; 21.3 µM (inactive) in experiment [18]; 27.6 µM (inactive) in experiment [7]; 22.2 µM (inactive) in [8]. Further, the GI50 in experiment [9] was > 87.3 µM (inactive); in [10], 31.1 µM (inactive); in experiment [12], 35.3 µM (inactive); in [19] it was 25.6 µM (inactive); in [13] it was 14.2 µM (inactive); in experiment [14], 17.3 µM (inactive).

Regarding `O=c1[nH]nc(Cc2ccccc2)n1/N=C/c1ccccc1O`, the GI50 in experiment [15] was > 100 µM (inactive); in experiment [1], > 100 µM (inactive); in experiment [2], > 100 µM (inactive); in experiment [3], > 100 µM (inactive); in experiment [16], over 100 µM; in [4] it was > 100 µM (inactive). For the same molecule, the GI50 in experiment [5], in experiment [6], in experiment [17], in experiment [18], in experiment [7] and in experiment [8] was > 100 µM (inactive) each time. In addition, the GI50 was > 100 µM (inactive) in experiment [9]; > 100 µM (inactive) in experiment [12]; 45 µM (inactive) in experiment [19]; > 100 µM (inactive) in [13]; > 100 µM (inactive) in experiment [14].
